Values of other authors in article PMC9851200, “Multiparameter phenotypic screening for endogenous TFEB and TFE3 translocation identifies novel chemical series modulating lysosome function” (Autophagy, 2022).

What was measured:
Set-up in all cases: method as in original PKIS2 published data
[1] = biological target: kinases (KINOMEscan panel) (Homo sapiens, UniProt Q9H3Y6); settings: Published KINOMEscan; ref original PKIS2 published data; cited from earlier work
[2] = biological target: kinases (KINOMEscan panel) (Homo sapiens, UniProt P12931); settings: SRC; Published KINOMEscan; ref original PKIS2 published data; cited from earlier work
kinases (KINOMEscan panel) (Homo sapiens, UniProt P12931), sequence (P12931 whole entry): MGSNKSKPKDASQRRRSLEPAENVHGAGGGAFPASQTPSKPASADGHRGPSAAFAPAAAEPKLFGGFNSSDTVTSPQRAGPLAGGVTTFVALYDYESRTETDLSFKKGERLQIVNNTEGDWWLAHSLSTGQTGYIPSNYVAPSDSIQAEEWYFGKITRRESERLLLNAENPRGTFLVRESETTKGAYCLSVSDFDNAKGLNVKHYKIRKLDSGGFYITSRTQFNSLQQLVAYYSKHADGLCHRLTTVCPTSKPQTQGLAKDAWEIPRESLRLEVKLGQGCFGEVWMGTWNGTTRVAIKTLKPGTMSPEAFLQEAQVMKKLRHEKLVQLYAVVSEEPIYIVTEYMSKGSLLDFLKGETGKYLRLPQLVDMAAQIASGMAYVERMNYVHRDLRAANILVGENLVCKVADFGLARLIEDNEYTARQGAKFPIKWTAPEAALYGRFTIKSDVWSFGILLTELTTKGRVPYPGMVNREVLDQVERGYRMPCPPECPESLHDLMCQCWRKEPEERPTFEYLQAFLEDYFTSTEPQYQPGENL

[3] = biological target: kinases (KINOMEscan panel) (Homo sapiens, UniProt O75460); settings: Published KINOMEscan; ref original PKIS2 published data; cited from earlier work
kinases (KINOMEscan panel) (Homo sapiens, UniProt O75460), sequence (O75460 19-977): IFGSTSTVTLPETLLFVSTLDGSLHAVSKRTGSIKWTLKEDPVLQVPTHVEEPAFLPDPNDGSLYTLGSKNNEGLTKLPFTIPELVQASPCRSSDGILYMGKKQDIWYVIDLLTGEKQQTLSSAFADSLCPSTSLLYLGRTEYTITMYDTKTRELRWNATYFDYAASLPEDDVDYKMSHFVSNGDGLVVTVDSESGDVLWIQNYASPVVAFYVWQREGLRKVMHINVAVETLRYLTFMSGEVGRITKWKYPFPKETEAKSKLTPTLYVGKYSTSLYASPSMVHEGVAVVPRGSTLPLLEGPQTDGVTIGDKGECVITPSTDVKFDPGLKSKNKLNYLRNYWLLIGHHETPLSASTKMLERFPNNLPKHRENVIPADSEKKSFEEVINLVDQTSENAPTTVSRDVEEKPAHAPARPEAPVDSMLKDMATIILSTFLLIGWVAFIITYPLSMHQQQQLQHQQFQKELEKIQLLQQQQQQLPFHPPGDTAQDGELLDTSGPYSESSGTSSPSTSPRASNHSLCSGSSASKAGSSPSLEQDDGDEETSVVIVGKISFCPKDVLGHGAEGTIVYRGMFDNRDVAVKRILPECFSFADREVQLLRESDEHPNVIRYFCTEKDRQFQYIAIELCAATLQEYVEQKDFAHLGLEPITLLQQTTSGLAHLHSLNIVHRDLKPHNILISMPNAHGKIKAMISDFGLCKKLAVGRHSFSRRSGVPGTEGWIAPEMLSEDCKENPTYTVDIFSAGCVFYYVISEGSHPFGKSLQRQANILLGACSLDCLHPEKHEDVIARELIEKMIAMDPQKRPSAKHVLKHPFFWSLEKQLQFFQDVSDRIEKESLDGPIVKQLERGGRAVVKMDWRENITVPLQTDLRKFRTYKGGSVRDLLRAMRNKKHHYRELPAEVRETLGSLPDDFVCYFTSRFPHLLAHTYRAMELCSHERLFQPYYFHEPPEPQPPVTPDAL

[4] = biological target: kinases (KINOMEscan panel) (Homo sapiens, UniProt P11362); settings: kinase FGFR1; Published KINOMEscan; ref original PKIS2 published data; cited from earlier work
kinases (KINOMEscan panel) (Homo sapiens, UniProt P11362), sequence (P11362 22-822): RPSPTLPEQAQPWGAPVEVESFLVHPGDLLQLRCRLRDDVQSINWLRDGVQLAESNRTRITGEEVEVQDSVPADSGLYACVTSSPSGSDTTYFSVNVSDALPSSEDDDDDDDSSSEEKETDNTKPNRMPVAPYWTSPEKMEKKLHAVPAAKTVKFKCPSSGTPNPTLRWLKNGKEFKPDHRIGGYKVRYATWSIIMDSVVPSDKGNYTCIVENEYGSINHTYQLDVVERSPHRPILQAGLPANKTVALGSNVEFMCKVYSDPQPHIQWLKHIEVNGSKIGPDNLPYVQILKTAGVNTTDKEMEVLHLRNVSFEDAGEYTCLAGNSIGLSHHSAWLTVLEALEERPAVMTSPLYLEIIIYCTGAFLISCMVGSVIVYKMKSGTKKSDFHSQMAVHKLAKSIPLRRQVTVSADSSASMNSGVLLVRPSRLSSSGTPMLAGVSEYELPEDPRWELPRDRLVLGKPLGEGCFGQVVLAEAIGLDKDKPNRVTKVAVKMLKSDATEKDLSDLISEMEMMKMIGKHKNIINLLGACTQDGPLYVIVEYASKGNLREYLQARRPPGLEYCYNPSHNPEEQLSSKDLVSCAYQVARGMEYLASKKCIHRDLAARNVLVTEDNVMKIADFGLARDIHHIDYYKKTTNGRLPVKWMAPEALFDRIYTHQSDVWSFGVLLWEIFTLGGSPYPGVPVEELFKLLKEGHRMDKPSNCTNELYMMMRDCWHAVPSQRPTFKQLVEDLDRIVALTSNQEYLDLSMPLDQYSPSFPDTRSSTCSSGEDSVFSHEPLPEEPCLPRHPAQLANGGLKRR

[5] = biological target: kinases (KINOMEscan panel) (Homo sapiens, UniProt Q14680); settings: kinase MELK; Published KINOMEscan; ref original PKIS2 published data; cited from earlier work
[6] = biological target: kinases (KINOMEscan panel) (Homo sapiens, UniProt Q9UKE5); settings: TNIK; Published KINOMEscan; ref original PKIS2 published data; cited from earlier work
kinases (KINOMEscan panel) (Homo sapiens, UniProt Q9UKE5), sequence (Q9UKE5 whole entry): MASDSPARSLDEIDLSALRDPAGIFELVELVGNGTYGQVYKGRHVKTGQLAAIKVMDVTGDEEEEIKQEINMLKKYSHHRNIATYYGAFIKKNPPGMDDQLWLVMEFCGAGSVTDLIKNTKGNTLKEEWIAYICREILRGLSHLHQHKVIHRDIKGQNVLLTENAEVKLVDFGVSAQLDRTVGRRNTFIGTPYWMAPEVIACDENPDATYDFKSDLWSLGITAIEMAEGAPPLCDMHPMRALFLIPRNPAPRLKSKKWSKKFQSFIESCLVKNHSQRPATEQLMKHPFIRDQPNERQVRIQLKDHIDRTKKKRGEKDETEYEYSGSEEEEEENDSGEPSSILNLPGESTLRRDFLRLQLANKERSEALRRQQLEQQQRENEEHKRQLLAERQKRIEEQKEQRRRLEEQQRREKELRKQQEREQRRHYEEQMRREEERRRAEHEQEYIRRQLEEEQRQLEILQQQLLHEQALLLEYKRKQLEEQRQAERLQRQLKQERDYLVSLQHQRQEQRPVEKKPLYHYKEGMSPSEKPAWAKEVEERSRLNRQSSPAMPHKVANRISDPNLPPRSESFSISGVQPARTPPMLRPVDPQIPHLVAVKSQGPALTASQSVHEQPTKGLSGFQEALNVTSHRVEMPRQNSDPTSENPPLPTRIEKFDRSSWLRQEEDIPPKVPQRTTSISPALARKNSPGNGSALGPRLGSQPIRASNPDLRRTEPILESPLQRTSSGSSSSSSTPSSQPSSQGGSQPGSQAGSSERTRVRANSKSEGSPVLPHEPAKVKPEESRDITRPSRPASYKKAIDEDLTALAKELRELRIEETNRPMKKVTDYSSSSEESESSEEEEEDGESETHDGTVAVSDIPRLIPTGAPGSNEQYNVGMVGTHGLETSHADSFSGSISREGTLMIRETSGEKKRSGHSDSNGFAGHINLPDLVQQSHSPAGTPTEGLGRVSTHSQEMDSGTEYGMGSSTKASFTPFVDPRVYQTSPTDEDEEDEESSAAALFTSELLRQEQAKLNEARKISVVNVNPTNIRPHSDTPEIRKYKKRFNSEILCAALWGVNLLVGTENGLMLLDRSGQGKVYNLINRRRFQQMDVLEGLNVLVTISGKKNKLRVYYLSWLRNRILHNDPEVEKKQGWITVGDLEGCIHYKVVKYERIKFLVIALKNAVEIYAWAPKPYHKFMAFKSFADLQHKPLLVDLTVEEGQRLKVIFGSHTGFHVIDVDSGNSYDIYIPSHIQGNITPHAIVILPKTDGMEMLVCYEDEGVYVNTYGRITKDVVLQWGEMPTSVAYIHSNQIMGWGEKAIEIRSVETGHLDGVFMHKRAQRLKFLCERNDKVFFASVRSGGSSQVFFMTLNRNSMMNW

[7] = biological target: kinases (KINOMEscan panel) (Homo sapiens, UniProt Q16816); settings: PHKG1; Published KINOMEscan; ref original PKIS2 published data; cited from earlier work
kinases (KINOMEscan panel) (Homo sapiens, UniProt Q16816), sequence (Q16816 whole entry): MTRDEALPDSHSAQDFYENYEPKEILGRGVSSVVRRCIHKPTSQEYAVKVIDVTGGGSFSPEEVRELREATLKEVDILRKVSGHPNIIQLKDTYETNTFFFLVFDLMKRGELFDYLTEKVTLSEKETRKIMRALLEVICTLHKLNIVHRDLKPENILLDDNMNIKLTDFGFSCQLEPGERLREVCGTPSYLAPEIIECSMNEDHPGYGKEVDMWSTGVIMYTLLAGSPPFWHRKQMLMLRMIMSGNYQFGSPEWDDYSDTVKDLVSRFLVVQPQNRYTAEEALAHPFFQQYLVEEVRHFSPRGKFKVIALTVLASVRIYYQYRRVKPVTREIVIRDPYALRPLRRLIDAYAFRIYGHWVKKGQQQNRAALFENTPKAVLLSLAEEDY

[8] = biological target: kinases (KINOMEscan panel) (Homo sapiens, UniProt P78362); settings: SRPK2; Published KINOMEscan; ref original PKIS2 published data; cited from earlier work
[9] = biological target: T1, kinases (KINOMEscan panel) (Homo sapiens, UniProt P36888); settings: Published KINOMEscan, ref original PKIS2 published data, cited from earlier work
T1 sequence (P36888 27-993): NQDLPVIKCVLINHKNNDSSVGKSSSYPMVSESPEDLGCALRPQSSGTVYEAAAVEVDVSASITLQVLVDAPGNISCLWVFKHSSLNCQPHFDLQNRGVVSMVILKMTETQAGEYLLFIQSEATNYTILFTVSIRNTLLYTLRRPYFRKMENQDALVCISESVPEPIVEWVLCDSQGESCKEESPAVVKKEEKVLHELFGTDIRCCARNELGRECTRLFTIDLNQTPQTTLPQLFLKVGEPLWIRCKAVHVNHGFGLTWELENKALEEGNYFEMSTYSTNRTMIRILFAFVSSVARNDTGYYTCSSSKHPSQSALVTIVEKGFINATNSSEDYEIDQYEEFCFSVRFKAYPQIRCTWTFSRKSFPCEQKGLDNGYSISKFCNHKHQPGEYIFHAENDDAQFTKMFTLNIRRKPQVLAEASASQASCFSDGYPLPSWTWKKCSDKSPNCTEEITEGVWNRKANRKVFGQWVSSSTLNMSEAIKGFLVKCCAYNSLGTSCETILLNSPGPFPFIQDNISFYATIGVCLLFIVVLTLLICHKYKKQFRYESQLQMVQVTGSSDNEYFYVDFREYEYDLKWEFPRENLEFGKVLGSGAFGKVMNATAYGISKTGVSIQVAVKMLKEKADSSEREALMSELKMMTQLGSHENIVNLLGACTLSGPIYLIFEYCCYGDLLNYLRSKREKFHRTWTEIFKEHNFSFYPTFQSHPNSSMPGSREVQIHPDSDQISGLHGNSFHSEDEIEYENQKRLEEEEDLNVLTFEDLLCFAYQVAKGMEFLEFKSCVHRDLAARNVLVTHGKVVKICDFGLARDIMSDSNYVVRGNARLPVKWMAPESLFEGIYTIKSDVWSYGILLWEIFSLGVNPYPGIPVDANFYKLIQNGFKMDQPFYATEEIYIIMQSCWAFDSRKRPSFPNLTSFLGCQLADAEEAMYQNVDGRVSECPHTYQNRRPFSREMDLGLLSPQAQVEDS

[10] = biological target: kinases (KINOMEscan panel) (Homo sapiens, UniProt P53667); settings: kinase LIMK1; Published KINOMEscan; ref original PKIS2 published data; cited from earlier work
[11] = biological target: kinases (KINOMEscan panel) (Homo sapiens, UniProt Q04912); settings: MST1R; Published KINOMEscan; ref original PKIS2 published data; cited from earlier work
[12] = biological target: T2, kinases (KINOMEscan panel) (Homo sapiens, UniProt Q13546); settings: kinase RIPK1; Published KINOMEscan; ref original PKIS2 published data; cited from earlier work
T2 sequence (Q13546 1-671): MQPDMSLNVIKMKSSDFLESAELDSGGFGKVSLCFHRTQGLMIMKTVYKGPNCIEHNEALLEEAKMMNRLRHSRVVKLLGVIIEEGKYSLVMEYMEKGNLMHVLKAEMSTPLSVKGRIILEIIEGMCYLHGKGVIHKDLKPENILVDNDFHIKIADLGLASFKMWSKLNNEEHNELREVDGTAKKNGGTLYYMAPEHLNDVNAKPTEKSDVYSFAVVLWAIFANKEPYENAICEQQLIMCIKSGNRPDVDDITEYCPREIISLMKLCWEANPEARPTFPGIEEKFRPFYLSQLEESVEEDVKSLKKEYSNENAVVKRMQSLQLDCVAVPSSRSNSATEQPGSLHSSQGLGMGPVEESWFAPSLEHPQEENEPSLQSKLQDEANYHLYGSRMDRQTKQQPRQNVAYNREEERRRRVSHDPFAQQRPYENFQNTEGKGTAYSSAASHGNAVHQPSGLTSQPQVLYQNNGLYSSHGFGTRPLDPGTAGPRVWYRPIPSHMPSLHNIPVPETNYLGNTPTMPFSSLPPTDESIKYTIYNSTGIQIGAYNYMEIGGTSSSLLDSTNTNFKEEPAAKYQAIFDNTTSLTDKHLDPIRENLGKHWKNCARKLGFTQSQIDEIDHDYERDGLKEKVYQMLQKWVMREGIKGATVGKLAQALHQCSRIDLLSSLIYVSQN

kinases (KINOMEscan panel) (Homo sapiens, UniProt Q9H3Y6), sequence (Q9H3Y6 whole entry): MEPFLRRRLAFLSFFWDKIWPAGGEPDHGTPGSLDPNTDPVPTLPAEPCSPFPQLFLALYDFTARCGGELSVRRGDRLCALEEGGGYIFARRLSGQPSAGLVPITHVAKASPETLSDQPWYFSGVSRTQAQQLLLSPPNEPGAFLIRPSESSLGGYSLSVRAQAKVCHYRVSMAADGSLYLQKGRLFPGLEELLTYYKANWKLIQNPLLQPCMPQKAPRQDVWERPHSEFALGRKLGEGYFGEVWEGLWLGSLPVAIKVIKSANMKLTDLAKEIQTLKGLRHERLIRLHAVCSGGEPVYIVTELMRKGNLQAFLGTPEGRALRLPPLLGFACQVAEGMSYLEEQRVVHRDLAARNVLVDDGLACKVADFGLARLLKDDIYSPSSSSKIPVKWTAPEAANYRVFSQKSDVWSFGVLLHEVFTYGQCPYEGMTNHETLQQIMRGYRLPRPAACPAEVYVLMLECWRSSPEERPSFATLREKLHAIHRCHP

Cc1cccc(-c2nc(Nc3ccncc3)c3ccccc3n2)n1 [NK215]
KINOMEscan SRMS [1]: 0 | KINOMEscan SRC [2]: 20 | KINOMEscan ERN1 [3]: 0 | KINOMEscan FGFR1 [4]: 5 | KINOMEscan MELK [5]: 11 | KINOMEscan TNIK [6]: 29 | KINOMEscan PHKG1 [7]: 47 | KINOMEscan SRPK2 [8]: 54 | KINOMEscan FLT3 ([9]; FLT3): 0 | KINOMEscan FLT3-autoinhibited ([9]; kinase FLT3-autoinhibited): 0 | KINOMEscan LIMK1 [10]: 12 | KINOMEscan MST1R [11]: 0 | KINOMEscan RIPK1 [12]: 4
